The values below come from patent US9321776B2, “Isochromene derivatives as phoshoinositide 3-kinases inhibitors” (CHIESI FARMACEUTICI S.p.A., priority 2013, dated 2016).

Experiment in all cases: PI3K enzyme inhibitory activity in the cell free assay (ADP-Glo Kinase Assay)
What all share (assay type): biochemical

The target of assay [1] is T1, PI3Kβ (Homo sapiens, UniProt P42338).
T1 construct: purchased Millipore Ltd (Billerica, Mass.)
The following applies: human recombinant PI3Kβ, ATP 100 μM; read-out: PI3K beta inhibition.

For assay [2], the target named is T2, PI3Kγ (Homo sapiens, UniProt P48736).
T2 construct: purchased Millipore Ltd (Billerica, Mass.)
Conditions: human recombinant PI3Kγ, ATP 30 μM; read-out: PI3K gamma inhibition.

The target of assay [3] is T3, PI3Kδ (Homo sapiens, UniProt O00329).
T3 construct: purchased Millipore Ltd (Billerica, Mass.)
T3 sequence (O00329 1-1044): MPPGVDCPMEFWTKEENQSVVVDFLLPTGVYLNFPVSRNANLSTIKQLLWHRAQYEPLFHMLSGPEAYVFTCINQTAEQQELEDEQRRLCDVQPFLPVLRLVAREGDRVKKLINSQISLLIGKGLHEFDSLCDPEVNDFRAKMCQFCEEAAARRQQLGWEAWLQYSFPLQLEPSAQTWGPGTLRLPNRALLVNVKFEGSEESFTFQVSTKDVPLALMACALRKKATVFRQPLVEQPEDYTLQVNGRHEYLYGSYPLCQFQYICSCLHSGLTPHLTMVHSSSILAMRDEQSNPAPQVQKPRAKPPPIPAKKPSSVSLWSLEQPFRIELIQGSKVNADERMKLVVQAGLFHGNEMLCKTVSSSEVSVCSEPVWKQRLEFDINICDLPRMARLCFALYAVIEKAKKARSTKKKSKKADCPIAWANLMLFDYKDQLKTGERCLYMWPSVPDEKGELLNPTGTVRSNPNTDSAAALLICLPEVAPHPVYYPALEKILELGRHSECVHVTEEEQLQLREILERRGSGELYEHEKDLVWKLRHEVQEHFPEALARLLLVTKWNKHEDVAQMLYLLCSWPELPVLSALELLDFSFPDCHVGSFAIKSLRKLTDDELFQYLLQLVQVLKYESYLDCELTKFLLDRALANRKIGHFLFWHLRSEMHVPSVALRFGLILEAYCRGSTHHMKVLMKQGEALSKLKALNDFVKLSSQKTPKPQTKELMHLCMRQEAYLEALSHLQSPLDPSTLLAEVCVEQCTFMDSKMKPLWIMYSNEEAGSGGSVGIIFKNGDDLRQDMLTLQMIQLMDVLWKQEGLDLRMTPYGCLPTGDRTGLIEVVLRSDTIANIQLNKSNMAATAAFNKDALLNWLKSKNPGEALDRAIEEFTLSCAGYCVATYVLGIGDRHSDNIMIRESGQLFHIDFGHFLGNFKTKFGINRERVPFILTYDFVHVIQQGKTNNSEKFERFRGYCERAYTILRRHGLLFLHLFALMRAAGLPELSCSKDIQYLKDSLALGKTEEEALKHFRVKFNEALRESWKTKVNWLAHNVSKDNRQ
The following applies: human recombinant PI3Kδ, ATP 80 μM; read-out: PI3K delta inhibition.

Counter-ions that a name gives are not always drawn. Where only a bound is given, the exact number is not on record here.

T2 sequence (P48736 whole entry): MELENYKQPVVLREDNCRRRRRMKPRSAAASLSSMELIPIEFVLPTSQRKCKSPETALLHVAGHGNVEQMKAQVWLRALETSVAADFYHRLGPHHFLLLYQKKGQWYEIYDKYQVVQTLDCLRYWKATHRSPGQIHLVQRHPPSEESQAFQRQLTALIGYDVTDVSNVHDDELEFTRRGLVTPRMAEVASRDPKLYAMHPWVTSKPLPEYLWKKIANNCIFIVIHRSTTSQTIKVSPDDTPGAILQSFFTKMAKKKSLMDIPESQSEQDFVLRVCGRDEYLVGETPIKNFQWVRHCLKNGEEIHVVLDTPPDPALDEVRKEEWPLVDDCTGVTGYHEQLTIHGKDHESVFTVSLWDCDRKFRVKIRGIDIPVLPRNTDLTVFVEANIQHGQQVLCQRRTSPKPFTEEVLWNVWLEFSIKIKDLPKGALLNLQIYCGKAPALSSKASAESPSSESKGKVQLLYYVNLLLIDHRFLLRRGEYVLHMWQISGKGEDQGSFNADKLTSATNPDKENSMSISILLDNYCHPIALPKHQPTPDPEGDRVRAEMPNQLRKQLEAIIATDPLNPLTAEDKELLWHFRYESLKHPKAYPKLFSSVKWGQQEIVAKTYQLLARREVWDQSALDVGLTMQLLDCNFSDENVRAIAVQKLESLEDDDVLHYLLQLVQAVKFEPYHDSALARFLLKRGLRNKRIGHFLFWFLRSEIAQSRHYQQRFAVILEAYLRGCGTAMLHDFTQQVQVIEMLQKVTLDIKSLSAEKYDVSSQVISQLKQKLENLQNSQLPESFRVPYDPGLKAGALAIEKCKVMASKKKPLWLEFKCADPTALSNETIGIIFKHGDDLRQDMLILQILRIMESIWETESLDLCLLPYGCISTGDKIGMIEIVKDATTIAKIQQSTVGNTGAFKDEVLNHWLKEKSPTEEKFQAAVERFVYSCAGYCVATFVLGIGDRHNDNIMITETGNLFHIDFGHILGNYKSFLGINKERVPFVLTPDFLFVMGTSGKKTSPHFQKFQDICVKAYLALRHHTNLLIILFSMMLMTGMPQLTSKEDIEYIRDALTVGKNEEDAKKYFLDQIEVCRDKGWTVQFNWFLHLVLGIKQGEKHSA
T1 sequence (P42338 whole entry): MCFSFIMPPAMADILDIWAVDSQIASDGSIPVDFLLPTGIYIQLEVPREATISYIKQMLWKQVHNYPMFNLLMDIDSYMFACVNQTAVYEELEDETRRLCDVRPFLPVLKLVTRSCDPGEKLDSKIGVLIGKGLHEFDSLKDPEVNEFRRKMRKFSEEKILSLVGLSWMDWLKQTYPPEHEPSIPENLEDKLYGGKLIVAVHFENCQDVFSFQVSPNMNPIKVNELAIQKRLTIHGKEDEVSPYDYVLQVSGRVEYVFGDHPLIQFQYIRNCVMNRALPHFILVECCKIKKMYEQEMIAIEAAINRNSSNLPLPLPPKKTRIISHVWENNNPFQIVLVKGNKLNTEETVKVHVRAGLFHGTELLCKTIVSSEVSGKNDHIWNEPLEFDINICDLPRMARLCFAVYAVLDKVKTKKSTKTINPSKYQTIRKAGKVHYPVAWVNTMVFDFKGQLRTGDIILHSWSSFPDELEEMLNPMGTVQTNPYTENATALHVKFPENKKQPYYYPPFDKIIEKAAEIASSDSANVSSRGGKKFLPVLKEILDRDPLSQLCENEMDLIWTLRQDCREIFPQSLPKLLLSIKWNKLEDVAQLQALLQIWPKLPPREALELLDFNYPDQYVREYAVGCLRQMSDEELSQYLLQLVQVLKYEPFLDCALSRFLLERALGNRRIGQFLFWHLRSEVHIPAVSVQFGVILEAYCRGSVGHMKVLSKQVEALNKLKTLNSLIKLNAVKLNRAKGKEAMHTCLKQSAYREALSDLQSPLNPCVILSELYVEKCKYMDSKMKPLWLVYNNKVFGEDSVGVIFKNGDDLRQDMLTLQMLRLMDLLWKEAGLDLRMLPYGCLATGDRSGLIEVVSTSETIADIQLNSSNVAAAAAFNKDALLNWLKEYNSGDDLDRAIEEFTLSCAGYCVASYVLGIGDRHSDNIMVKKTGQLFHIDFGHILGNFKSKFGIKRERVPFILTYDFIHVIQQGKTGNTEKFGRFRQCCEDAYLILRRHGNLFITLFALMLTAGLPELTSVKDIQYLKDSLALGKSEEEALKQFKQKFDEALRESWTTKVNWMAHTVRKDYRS

Regarding “4-(1-acetyl-1,2,3,6-tetrahydropyridin-4-yl)-3-(1-(4-amino-3-(3-fluoro-5-hydroxyphenyl)-1H-pyrazolo[3,4-d]pyrimidin-1-yl)ethyl)-1H-isochromen-1-one single enantiomer [Example 166b]”, the IC50 in assay [1] fell in the range of 0.01 to 1 µM.
In the case of `CC(c1oc(=O)c2ccccc2c1-c1ccc(CN2CCOCC2)s1)n1nc(-c2cc(O)cc(F)c2)c2c(N)ncnc21` (single isomer, unassigned) [Example 49b, 3-(1-(4-amino-3-(3-fluoro-5-hydroxyphenyl)-1H-pyrazolo[3,4-d]pyrimidin-1-yl)ethyl)-4-(5-(morpholinomethyl)thiophen-2-yl)-1H-isochromen-1-one hydrochloride], the IC50 in assay [2] was > 1 µM; in assay [3], 0.01 to 1 µM; in assay [1], > 1 µM.
In the case of `CC(c1oc(=O)c2ccccc2c1-c1cccc(CCCN(C)C)c1)n1nc(-c2cc(O)cc(F)c2)c2c(N)ncnc21` (single isomer, unassigned) [Example 137a, 3-(1-(4-amino-3-(3-fluoro-5-hydroxyphenyl)-1H-pyrazolo[3,4-d]pyrimidin-1-yl)ethyl)-4-(3-(3-(dimethylamino)propyl)phenyl)-1H-isochromen-1-one single enantiomers], the IC50 in assay [3] was 0.01 to 1 µM; in assay [1], > 1 µM.
Consider `Nc1ncnc2c1ncn2Cc1oc(=O)c2ccccc2c1-c1ccccc1` [Example 1, 3-((6-Amino-9H-1-purin-9-yl)methyl)-4-phenyl-1H-isochromen-1-one], for which the IC50 in assay [2] was 0.01 to 1 µM; in assay [3], 0.01 to 1 µM; in assay [1], > 1 µM.
Consider `Nc1ncnc2c1ncn2Cc1oc(=O)c2ccccc2c1-c1cccc(F)c1` [Example 2, 3-((6-Amino-9H-purin-9-yl)methyl)-4-(3-fluorophenyl)-1H-isochromen-1-one], for which the IC50 in assay [2] was > 1 µM; in assay [3] it was 0.01 to 1 µM; in assay [1], > 1 µM.
With `Nc1ncnc2c1ncn2Cc1oc(=O)c2ccccc2c1-c1ccccc1F` [Example 3, 3-((6-Amino-9H-purin-9-yl)methyl)-4-(2-fluorophenyl)-1H-isochromen-1-one], the IC50 is > 1 µM in assay [2], 0.01 to 1 µM in assay [3] and > 1 µM in assay [1].
Regarding `Cc1cccc(-c2c(Cn3cnc4c(N)ncnc43)oc(=O)c3ccccc23)c1` [Example 4, 3-((6-Amino-9H-purin-9-yl)methyl)-4-m-tolyl-1H-isochromen-1-one], the IC50 is > 1 µM in assay [2], 0.01 to 1 µM in assay [3] and > 1 µM in assay [1].
With `CC(c1oc(=O)c2ccccc2c1-c1cncs1)n1ncc2c(N)ncnc21` (centres unmarked) [Example 18, 3-(1-(4-Amino-1H-pyrazolo[3,4-d]pyrimidin-1-yl)ethyl)-4-(thiazol-5-yl)-1H-isochromen-1-one], the results for the IC50 in assay [2], in assay [3] and in assay [1] were > 1 µM, 0.01 to 1 µM and 0.01 to 1 µM, respectively.
On to `CCC(Nc1ncnc2[nH]cnc12)c1oc(=O)c2ccccc2c1-c1ccccc1` (centres unmarked) [Example 25, 3-(1-(9H-Purin-6-ylamino)propyl)-4-phenyl-1H-isochromen-1-one], for which the IC50 in assay [2] is 0.01 to 1 µM; in assay [3], < 0.01 µM; in assay [1], > 1 µM.
Taken in the same sequence, the figures for `CC(Nc1ncnc2[nH]cnc12)c1oc(=O)c2ccccc2c1-c1ccc(CN2CCOCC2)s1` (centres unmarked) [Example 28, 3-(1-(9H-Purin-6-ylamino)ethyl)-4-(5-(morpholinomethyl)thiophen-2-yl)-1H-isochromen-1-one] were 0.01 to 1 µM, < 0.01 µM and > 1 µM.
`O=c1oc(CNc2ncnc3[nH]cnc23)c(-c2ccccc2F)c2ccccc12` [Example 30, 3-((9H-Purin-6-ylamino)methyl)-4-(2-fluorophenyl)-1H-isochromen-1-one]: the IC50 in assay [2] was 0.01 to 1 µM; in assay [3], 0.01 to 1 µM; in assay [1] it was > 1 µM.
As to `CC(Nc1ncnc2[nH]cnc12)c1oc(=O)c2ccccc2c1-c1cccc(N(C)C)c1` (centres unmarked) [Example 34, 3-(1-(9H-Purin-6-ylamino)ethyl)-4-(3-(dimethylamino)phenyl)-1H-isochromen-1-one], the IC50 in assay [2] is 0.01 to 1 µM; in assay [3] it was 0.01 to 1 µM; in assay [1], > 1 µM.
Take `Nc1ncnc2c1c(-c1cc(O)cc(F)c1)nn2Cc1oc(=O)c2ccccc2c1-c1ccccc1` [Example 35, 3-((4-Amino-3-(3-fluoro-5-hydroxyphenyl)-1H-pyrazolo[3,4-d]pyrimidin-1-yl)methyl)-4-phenyl-1H-isochromen-1-one]: the IC50 in assay [2] was 0.01 to 1 µM; in assay [3], < 0.01 µM; in assay [1] it was > 1 µM.
The matching figures for `Nc1ncnc2c1c(-c1ccc3[nH]ncc3c1)nn2Cc1oc(=O)c2ccccc2c1-c1ccccc1` [Example 36, 3-((4-Amino-3-(1H-indazol-5-yl)-1H-pyrazolo[3,4-d]pyrimidin-1-yl)methyl)-4-phenyl-1H-isochromen-1-one]: 0.01 to 1 µM, 0.01 to 1 µM and > 1 µM.
Consider `Nc1ncnc2c1c(-c1ccc3cn[nH]c3c1)nn2Cc1oc(=O)c2ccccc2c1-c1ccccc1` [Example 38, 3-((4-Amino-3-(1H-indazol-6-yl)-1H-pyrazolo[3,4-d]pyrimidin-1-yl)methyl)-4-phenyl-1H-isochromen-1-one], for which the IC50 in assay [2] is 0.01 to 1 µM; in assay [3], 0.01 to 1 µM; in assay [1] it was > 1 µM.
Regarding `Nc1ncnc2c1c(-c1ccc(O)c(F)c1)nn2Cc1oc(=O)c2ccccc2c1-c1ccccc1` [Example 39, 3-((4-Amino-3-(3-fluoro-4-hydroxyphenyl)-1H-pyrazolo[3,4-d]pyrimidin-1-yl)methyl)-4-phenyl-1H-isochromen-1-one], the IC50 was 0.01 to 1 µM in assay [2], 0.01 to 1 µM in assay [3] and > 1 µM in assay [1].
For the compound `CC(c1oc(=O)c2ccccc2c1-c1ccc(CN2CCCC2)s1)n1nc(-c2cc(O)cc(F)c2)c2c(N)ncnc21` (centres unmarked) [Example 73, 3-(1-(4-amino-3-(3-fluoro-5-hydroxyphenyl)-1H-pyrazolo[3,4-d]pyrimidin-1-yl)ethyl)-4-(5-(pyrrolidin-1-ylmethyl)thiophen-2-yl)-1H-isochromen-1-one hydrochloride], the IC50 was > 1 µM in assay [2], < 0.01 µM in assay [3] and 0.01 to 1 µM in assay [1].
With `CC(c1oc(=O)c2ccccc2c1-c1ccc(C(=O)O)s1)n1nc(-c2cc(O)cc(F)c2)c2c(N)ncnc21` (centres unmarked) [Example 78, 5-(3-(1-(4-amino-3-(3-fluoro-5-hydroxyphenyl)-1H-pyrazolo[3,4-d]pyrimidin-1-yl)ethyl)-1-oxo-1H-isochromen-4-yl)thiophene-2-carboxylic acid], the IC50 in assay [2] is 0.01 to 1 µM; in assay [3] it was < 0.01 µM; in assay [1], > 1 µM.
Turning to `CC(c1oc(=O)c2ccccc2c1-c1ccccc1)n1nc(-c2ccc(S(C)(=O)=O)nc2)c2c(N)ncnc21` (centres unmarked) [Example 97, 3-(1-(4-amino-3-(6-(methylsulfonyl)pyridin-3-yl)-1H-pyrazolo[3,4-d]pyrimidin-1-yl)ethyl)-4-phenyl-1H-isochromen-1-one], the IC50 in assay [2] was > 1 µM; in assay [3], < 0.01 µM.
Turning to `CC(Nc1ncnc2ccsc12)c1oc(=O)c2ccccc2c1-c1ccccc1` (centres unmarked) [Example 109, 4-phenyl-3-(1-(thieno[3,2-d]pyrimidin-4-ylamino)ethyl)-1H-isochromen-1-one], the IC50 in assay [2] and in assay [3] was 0.01 to 1 µM each time.
Turning to `CC(Nc1ncnc2[nH]cnc12)c1oc(=O)c2ccccc2c1-c1ccc(CN2CCNCC2)cc1` (centres unmarked) [Example 126, 3-(1-(9H-purin-6-ylamino)ethyl)-4-(4-(piperazin-1-ylmethyl)phenyl)-1H-isochromen-1-one dihydrochloride], the IC50 in assay [2] and in assay [3] was 0.01 to 1 µM in each case.
As to `CC(c1oc(=O)c2cc(Cl)ccc2c1-c1ccccc1)n1nc(-c2cc(O)cc(F)c2)c2c(N)ncnc21` (centres unmarked) [Example 163, 3-(1-(4-amino-3-(3-fluoro-5-hydroxyphenyl)-1H-pyrazolo[3,4-d]pyrimidin-1-yl)ethyl)-7-chloro-4-phenyl-1H-isochromen-1-one], the IC50 was > 1 µM in assay [2] and 0.01 to 1 µM in assay [3].
